Results from patent US3948898A, “1,3-Dioxo-2-aminoalkyl-4,4-dimethyl-isoquinolines and salts thereof” (Boehringer Ingelheim GmbH, priority 1973, dated 1976).
Where a name gives a salt, the structure may show the parent alone.

How the values were obtained:
[1] = hypotensive activity in anesthetized mongrel dogs (i.v.); assay type: in vivo
Protocol: The test compounds were injected intravenously into the vena saphena in aqueous solution. The arterial bloodpressure was measured before and after administration in the arteria femoralis by means of a […]-pressure transducer and registered on a Grass-polygraph.

[2] = acute toxicity in mice after oral application (LD50); conditions: mouse, in vivo, p.o., observation time 14 days
Protocol: The acute toxicity of the compounds was tested in mice (observation time: 14 days) after oral application. The LD50 was calculated from the percentage of the animals which died within the observation time after application of varying doses [see J. Pharmacol. exper. Therap.

| Structure (SMILES) | Decrease of bloodpressure diast. ([1]; 0.05 mg/kg i.v.) [mm Hg] | Decrease of bloodpressure syst. ([1]; 0.05 mg/kg i.v.) [mm Hg] | Duration of activity ([1]; 0.05 mg/kg i.v.) [min] | Decrease of bloodpressure diast. ([1]; 0.1 mg/kg i.v.) [mm Hg] | Decrease of bloodpressure syst. ([1]; 0.1 mg/kg i.v.) [mm Hg] | Duration of activity ([1]; 0.1 mg/kg i.v.) [min] | LD50 at 336 h [2] [mg/kg] | Decrease of bloodpressure diast. ([1]; 0.5 mg/kg i.v.) [mm Hg] | Decrease of bloodpressure syst. ([1]; 0.5 mg/kg i.v.) [mm Hg] | Duration of activity ([1]; 0.5 mg/kg i.v.) [min] | Decrease of bloodpressure diast. ([1]; 1.0 mg/kg i.v.) [mm Hg] | Decrease of bloodpressure syst. ([1]; 1.0 mg/kg i.v.) [mm Hg] | Duration of activity ([1]; 1.0 mg/kg i.v.) [min] |
| --- | --- | --- | --- | --- | --- | --- | --- | --- | --- | --- | --- | --- | --- |
| COc1ccccc1N1CCN(CCN2C(=O)c3ccccc3C(C)(C)C2=O)CC1.Cl.Cl [A, 1-[4,4-dimethyl-1,3-dioxo-(2H,4H)-isoquinolin-2-yl]-2-[4-(2-methoxy-phenyl)-piperazin-1-yl]-ethane dihydrochloride] | -31 | -27 | 53 | -34 | -33 | 47 | 850 |  |  |  |  |  |  |
| COc1ccc2c(c1)C(=O)N(CCCNCCc1ccc(OC)c(OC)c1)C(=O)C2(C)C [B, 1-[4,4-dimethyl-7-methoxy-1,3-dioxo-(2H,4H)-isoquinolin-2-yl]-3-[2-(3,4-dimethoxy-phenyl)-ethylamine]propane hydrochloride] |  |  |  |  |  |  | 775 | -36 | -32 | 35 | -40 | -36 | 40 |
